Experimental data as given in the OligoGym collection.
Oligonucleotides are given in HELM: sugar(base)linkage, 5' to 3'; d 2'-deoxyribose, r ribose, m 2'-O-methylribose, p phosphate. ss, as = sense and antisense strand

These substances were tested against TMEM63B (assay: reporter assay of Huesken 2005). Settings: siRNA.
Also: test concentration or dose not given here.

Substance	normalised inhibition (eCFP-eYFP dual reporter) [%]
RNA1{r(A)p.r(A)p.r(G)p.r(G)p.r(A)p.r(G)p.r(A)p.r(A)p.r(C)p.r(G)p.r(U)p.r(G)p.r(C)p.r(C)p.r(U)p.r(A)p.r(C)p.r(C)p.r(A)p.d(T)p.d(T)}|RNA2{r(U)p.r(G)p.r(G)p.r(U)p.r(A)p.r(G)p.r(G)p.r(C)p.r(A)p.r(C)p.r(G)p.r(U)p.r(U)p.r(C)p.r(U)p.r(C)p.r(C)p.r(U)p.r(U)p.d(G)p.d(C)}$$$RNA1{StrandType:ss}|RNA2{StrandType:as}$	70.2
RNA1{r(A)p.r(C)p.r(A)p.r(G)p.r(C)p.r(C)p.r(A)p.r(U)p.r(G)p.r(A)p.r(C)p.r(C)p.r(G)p.r(G)p.r(U)p.r(A)p.r(U)p.r(G)p.r(A)p.d(T)p.d(T)}|RNA2{r(U)p.r(C)p.r(A)p.r(U)p.r(A)p.r(C)p.r(C)p.r(G)p.r(G)p.r(U)p.r(C)p.r(A)p.r(U)p.r(G)p.r(G)p.r(C)p.r(U)p.r(G)p.r(U)p.d(C)p.d(C)}$$$RNA1{StrandType:ss}|RNA2{StrandType:as}$	56.4
RNA1{r(A)p.r(C)p.r(C)p.r(A)p.r(G)p.r(G)p.r(U)p.r(G)p.r(G)p.r(U)p.r(G)p.r(G)p.r(C)p.r(C)p.r(G)p.r(C)p.r(G)p.r(C)p.r(C)p.d(T)p.d(T)}|RNA2{r(G)p.r(G)p.r(C)p.r(G)p.r(C)p.r(G)p.r(G)p.r(C)p.r(C)p.r(A)p.r(C)p.r(C)p.r(A)p.r(C)p.r(C)p.r(U)p.r(G)p.r(G)p.r(U)p.d(T)p.d(C)}$$$RNA1{StrandType:ss}|RNA2{StrandType:as}$	57.6
RNA1{r(A)p.r(C)p.r(C)p.r(C)p.r(U)p.r(G)p.r(C)p.r(U)p.r(G)p.r(C)p.r(U)p.r(G)p.r(U)p.r(G)p.r(G)p.r(U)p.r(G)p.r(C)p.r(U)p.d(T)p.d(T)}|RNA2{r(A)p.r(G)p.r(C)p.r(A)p.r(C)p.r(C)p.r(A)p.r(C)p.r(A)p.r(G)p.r(C)p.r(A)p.r(G)p.r(C)p.r(A)p.r(G)p.r(G)p.r(G)p.r(U)p.d(G)p.d(G)}$$$RNA1{StrandType:ss}|RNA2{StrandType:as}$	58.5
RNA1{r(A)p.r(C)p.r(G)p.r(C)p.r(U)p.r(C)p.r(U)p.r(G)p.r(G)p.r(G)p.r(G)p.r(A)p.r(G)p.r(A)p.r(A)p.r(C)p.r(A)p.r(G)p.r(G)p.d(T)p.d(T)}|RNA2{r(C)p.r(C)p.r(U)p.r(G)p.r(U)p.r(U)p.r(C)p.r(U)p.r(C)p.r(C)p.r(C)p.r(C)p.r(A)p.r(G)p.r(A)p.r(G)p.r(C)p.r(G)p.r(U)p.d(G)p.d(T)}$$$RNA1{StrandType:ss}|RNA2{StrandType:as}$	48.3
RNA1{r(A)p.r(C)p.r(G)p.r(G)p.r(A)p.r(C)p.r(A)p.r(C)p.r(A)p.r(G)p.r(A)p.r(C)p.r(U)p.r(U)p.r(C)p.r(C)p.r(A)p.r(G)p.r(U)p.d(T)p.d(T)}|RNA2{r(A)p.r(C)p.r(U)p.r(G)p.r(G)p.r(A)p.r(A)p.r(G)p.r(U)p.r(C)p.r(U)p.r(G)p.r(U)p.r(G)p.r(U)p.r(C)p.r(C)p.r(G)p.r(U)p.d(G)p.d(A)}$$$RNA1{StrandType:ss}|RNA2{StrandType:as}$	85.7
RNA1{r(A)p.r(C)p.r(U)p.r(A)p.r(C)p.r(A)p.r(A)p.r(G)p.r(C)p.r(G)p.r(G)p.r(G)p.r(A)p.r(G)p.r(A)p.r(A)p.r(G)p.r(G)p.r(A)p.d(T)p.d(T)}|RNA2{r(U)p.r(C)p.r(C)p.r(U)p.r(U)p.r(C)p.r(U)p.r(C)p.r(C)p.r(C)p.r(G)p.r(C)p.r(U)p.r(U)p.r(G)p.r(U)p.r(A)p.r(G)p.r(U)p.d(C)p.d(T)}$$$RNA1{StrandType:ss}|RNA2{StrandType:as}$	72
RNA1{r(A)p.r(C)p.r(U)p.r(U)p.r(G)p.r(A)p.r(A)p.r(A)p.r(U)p.r(C)p.r(A)p.r(G)p.r(G)p.r(G)p.r(A)p.r(A)p.r(C)p.r(A)p.r(A)p.d(T)p.d(T)}|RNA2{r(U)p.r(U)p.r(G)p.r(U)p.r(U)p.r(C)p.r(C)p.r(C)p.r(U)p.r(G)p.r(A)p.r(U)p.r(U)p.r(U)p.r(C)p.r(A)p.r(A)p.r(G)p.r(U)p.d(T)p.d(G)}$$$RNA1{StrandType:ss}|RNA2{StrandType:as}$	34.4
RNA1{r(A)p.r(G)p.r(A)p.r(G)p.r(A)p.r(G)p.r(G)p.r(A)p.r(A)p.r(G)p.r(A)p.r(A)p.r(G)p.r(G)p.r(C)p.r(C)p.r(G)p.r(A)p.r(G)p.d(T)p.d(T)}|RNA2{r(C)p.r(U)p.r(C)p.r(G)p.r(G)p.r(C)p.r(C)p.r(U)p.r(U)p.r(C)p.r(U)p.r(U)p.r(C)p.r(C)p.r(U)p.r(C)p.r(U)p.r(C)p.r(U)p.d(G)p.d(C)}$$$RNA1{StrandType:ss}|RNA2{StrandType:as}$	49.4
RNA1{r(A)p.r(G)p.r(A)p.r(G)p.r(G)p.r(C)p.r(G)p.r(C)p.r(A)p.r(A)p.r(C)p.r(G)p.r(U)p.r(G)p.r(A)p.r(A)p.r(G)p.r(C)p.r(G)p.d(T)p.d(T)}|RNA2{r(C)p.r(G)p.r(C)p.r(U)p.r(U)p.r(C)p.r(A)p.r(C)p.r(G)p.r(U)p.r(U)p.r(G)p.r(C)p.r(G)p.r(C)p.r(C)p.r(U)p.r(C)p.r(U)p.d(C)p.d(G)}$$$RNA1{StrandType:ss}|RNA2{StrandType:as}$	35.7
RNA1{r(A)p.r(G)p.r(C)p.r(A)p.r(G)p.r(G)p.r(U)p.r(G)p.r(G)p.r(A)p.r(G)p.r(G)p.r(C)p.r(C)p.r(A)p.r(U)p.r(U)p.r(G)p.r(A)p.d(T)p.d(T)}|RNA2{r(U)p.r(C)p.r(A)p.r(A)p.r(U)p.r(G)p.r(G)p.r(C)p.r(C)p.r(U)p.r(C)p.r(C)p.r(A)p.r(C)p.r(C)p.r(U)p.r(G)p.r(C)p.r(U)p.d(C)p.d(A)}$$$RNA1{StrandType:ss}|RNA2{StrandType:as}$	77.2
RNA1{r(A)p.r(G)p.r(C)p.r(C)p.r(U)p.r(A)p.r(C)p.r(C)p.r(C)p.r(C)p.r(A)p.r(A)p.r(C)p.r(U)p.r(G)p.r(C)p.r(A)p.r(C)p.r(A)p.d(T)p.d(T)}|RNA2{r(U)p.r(G)p.r(U)p.r(G)p.r(C)p.r(A)p.r(G)p.r(U)p.r(U)p.r(G)p.r(G)p.r(G)p.r(G)p.r(U)p.r(A)p.r(G)p.r(G)p.r(C)p.r(U)p.d(T)p.d(C)}$$$RNA1{StrandType:ss}|RNA2{StrandType:as}$	70.7
RNA1{r(A)p.r(G)p.r(C)p.r(U)p.r(C)p.r(A)p.r(G)p.r(G)p.r(G)p.r(G)p.r(A)p.r(U)p.r(G)p.r(A)p.r(G)p.r(C)p.r(C)p.r(C)p.r(C)p.d(T)p.d(T)}|RNA2{r(G)p.r(G)p.r(G)p.r(G)p.r(C)p.r(U)p.r(C)p.r(A)p.r(U)p.r(C)p.r(C)p.r(C)p.r(C)p.r(U)p.r(G)p.r(A)p.r(G)p.r(C)p.r(U)p.d(C)p.d(C)}$$$RNA1{StrandType:ss}|RNA2{StrandType:as}$	43
RNA1{r(A)p.r(G)p.r(G)p.r(A)p.r(G)p.r(G)p.r(A)p.r(U)p.r(G)p.r(A)p.r(U)p.r(C)p.r(U)p.r(G)p.r(G)p.r(U)p.r(G)p.r(A)p.r(A)p.d(T)p.d(T)}|RNA2{r(U)p.r(U)p.r(C)p.r(A)p.r(C)p.r(C)p.r(A)p.r(G)p.r(A)p.r(U)p.r(C)p.r(A)p.r(U)p.r(C)p.r(C)p.r(U)p.r(C)p.r(C)p.r(U)p.d(T)p.d(G)}$$$RNA1{StrandType:ss}|RNA2{StrandType:as}$	77.4
